According to publication PMC11492426, “Design, synthesis, and biological evaluation of novel quinoline-based EGFR/HER-2 dual-target inhibitors as potential anti-tumor agents” (RSC Advances, 2024):

Tests used:
[1] = system: Panc-1 pancreatic cancer cell line; test: Antiproliferative assay, Panc-1; type: cell-based; details: Homo sapiens; Panc-1 pancreatic cancer cells; read-out: Antiproliferative activity IC50 ± SEM, Panc-1
[2] = system: A-549 lung cancer cell line; test: Antiproliferative assay, A-549; type: cell-based; details: Homo sapiens, A549; A-549 lung cancer cells; read-out: Antiproliferative activity IC50 ± SEM, A-549
[3] = system: MCF-7 breast cancer cell line; test: Antiproliferative assay, MCF-7; type: cell-based; details: Homo sapiens, MCF7; MCF-7 breast cancer cells; read-out: Antiproliferative activity IC50 ± SEM, MCF-7
[4] = system: HT-29 colon cancer cell line; test: Antiproliferative assay, HT-29; type: cell-based; details: Homo sapiens; HT-29 colon cancer cells; read-out: Antiproliferative activity IC50 ± SEM, HT-29
[5] = system: four human cancer cell lines (A-549, MCF-7, Panc-1, HT-29); test: Antiproliferative assay, average over four cancer cell lines; type: cell-based; details: average IC50 over the four cancer cell lines
[6] = Cell viability assay (MTT) on MCF-10A normal cells; type: cell-based; details: human, MCF-10A mammary gland epithelial normal cells, MCF-10A cells, four-day incubation
Experimental: The impact of compounds 3a–h and 5a–d on cell viability was evaluated using the human mammary (MCF-10A) gland epithelium normal cell line. The MTT assay was used to evaluate the cell viability of 3a–h and 5a–d after a four-day incubation period on MCF-10A cells.[46] Refer to Appendix A for more details.
The effect of new compounds 3a–h and 5a–d on cell viability was evaluated using the MCF-10A (human mammary gland epithelium) normal cell line.
4.2. Biological evaluation
4.2.1 Cell Viability assay (MTT assay)
MTT assay was performed to investigate the effect of the synthesized compounds on mammary epithelial cells (MCF-10A). The cells were propagated in medium consisting of Ham's F-12 medium/ Dulbecco's modified Eagle's medium (DMEM) (1:1) supplemented with 10% foetal calf serum, 2 mM glutamine, insulin (10 μg/mL), hydrocortisone (500 ng/mL) and epidermal growth factor (20 ng/mL). Trypsin ethylenediamine tetra acetic acid (EDTA) was used to passage the cells after every 2-3 days. 96-well flat-bottomed cell culture plates were used to seed the cells at a density of 10^4 cells mL-1. The medium was aspirated from all the wells of culture plates after 24 h followed by the addition of synthesized compounds (in 200 μL medium to yield a final concentration of 0.1% (v/v) dimethyl sulfoxide) into individual wells of the plates. Four wells were designated to a single compound. The plates were allowed to incubate at 37°C for 96 h. Afterwards, the medium was aspirated and 3-[4,5-dimethylthiazol-2-yl]-2,5-diphenyltetrazolium bromide (MTT) (0.4 mg/mL) in medium was added to each well and subsequently incubated for 3 h. The medium was aspirated and 150 μL dimethyl sulfoxide (DMSO) was added to each well. The plates were vortexed followed by the measurement of absorbance at 540 nm on a microplate reader. The results were presented as inhibition (%) of proliferation in contrast to controls comprising 0.1% DMSO.

Bcl-2 = Bcl-2 inhibition assay in MCF-7 cells; type: cell-based, human
Experimental: Additionally, the treatment led to a notable reduction in anti-apoptotic Bcl-2 expression levels, with a fold decrease of roughly 6 for compound 3e and 8 for compound 5a. Compounds 3e and 5a markedly elevated the Bax/Bcl-2 ratio compared to the control untreated cells. […]
4.2.8. Bcl-2 inhibition assay
Mix all reagents thoroughly without foaming before use. Wash the microwells twice with approximately 300 μL Wash Buffer per well with thorough aspiration of microwell contents between washes. Take caution not to scratch the surface of the microwells. After the last wash, empty the wells and tap microwell strips on absorbent pad or paper towel to remove excess Wash Buffer. Use the microwell strips immediately after washing or place upside down on a wet absorbent paper for not […]
longer than 15 minutes. […] Add 100 μL of Sample Diluent in duplicate to all standard wells and to the blank wells. Prepare standard (1:2 dilution) in duplicate ranging from 32 ng/mL to 0.5 ng/mL. Add 100 μL of Sample Diluent, in duplicate, to the blank wells. Add 80 μL of Sample Diluent, in duplicate, to the sample wells. Add 20 μL of each Sample, in duplicate, to the designated wells. Add 50 μL of diluted biotin-conjugate to all wells, including the blank wells. Cover with a plate cover and incubate at room temperature, on a microplate shaker at 100 rpm if available, for 2 hours. Remove plate cover and empty the wells. Wash microwell strips 3 times as described in step 2. Add 100 μL of diluted Streptavidin-HRP to all wells, including the blank wells. Cover with a plate cover and incubate at room temperature, on a microplate shaker at 100 rpm if available, for 1 hour. Remove plate cover and empty the wells. Wash microwell strips 3 times as described in step 2.
Proceed to the next step. Pipette 100 μl of mixed TMB Substrate Solution to all wells, including the blanks. Incubate the microwell strips at room temperature (18° to 25°C) for about 15 minutes, if available on a rotator set at 100 rpm. Avoid direct exposure to intense light. The point, at which the substrate reaction is stopped, is often determined by the ELISA reader. Many ELISA readers record absorbance only up to 2.0 O.D. Therefore, the color development within individual microwells must be watched by the person running the assay and the substrate reaction stopped before positive wells are no longer properly detectable. Stop the enzyme reaction by quickly pipetting 100 μL of Stop Solution into each well, including the blank wells. It is important that the Stop Solution is spread quickly and uniformly throughout the microwells to completely inactivate the enzyme. Results must be read immediately after the Stop Solution is added or within one hour if the microwell strips are stored at 2 - 8°C in the dark. Read absorbance of each microwell on a spectrophotometer using 450 nm as the primary wavelength.
4.3. Statistical analysis
Computerized Prism 5 program was used to statistically analyzed data using one-way ANOVA test followed by Tukey’s as post ANOVA for multiple comparison at P ≤.05. Data were presented as […]

Caspase-3 = Caspase-3 activation assay in MCF-7 cells; type: cell-based, human
Bax = Bax activation assay in MCF-7 cells; type: cell-based, human
Experimental: This lysate was diluted in Standard Diluent Buffer over the range of the assay and measured for human active caspase-8 content. (Cells are Plated in a density of 1.2 – 1.8 × 10,000 cells/well in a volume of 100µl complete growth medium + 100 ul of the tested compound per well in a 96-well plate for 24 hours before the enzyme assay for […].). […]
4.2.7. Bax activation assay
Bring all reagents, except the human Bax-α Standard, to room temperature for at least 30 minutes prior to opening. The human Bax-α Standard solution should not be left at room temperature for more than 10 minutes. All standards, controls and samples should be run in duplicate. Refer to the Assay Layout Sheet to determine the number of wells to be used and put any remaining wells with the desiccant back into the pouch and seal the ziploc. Store unused wells at 4 °C. Pipet 100 μL of Assay Buffer into the S0 (0 pg/mL standard) wells. Pipet 100 μL of Standards #1 through #6 into the appropriate wells. Pipet 100 μL of the Samples into the appropriate wells. Tap the plate gently to mix the contents. Seal the plate and incubate at room temperature on a plate shaker for 1 hour at ~500 rpm. Empty the contents of the wells and wash by adding 400 μL of wash solution to every well.
Repeat the wash 4 more times for a total of 5 washes. After the final wash, empty or aspirate the wells and firmly tap the plate on a lint free paper towel to remove any remaining wash buffer. Pipet 100 μL of yellow Antibody into each well, except the Blank. Seal the plate and incubate at room temperature on a plate shaker for 1 hour at ~500 rpm. Empty the contents of the wells and wash by adding 400 μL of wash solution to every well. Repeat the wash 4 more times for a total of 5 washes.
After the final wash, empty or aspirate the wells and firmly tap the plate on a lint free paper towel to remove any remaining wash buffer. Add 100 μL of blue Conjugate to each well, except the Blank.
Seal the plate and incubate at room temperature on a plate shaker for 30 minutes at ~500 rpm. Empty the contents of the wells and wash by adding 400 μL of wash solution to every well. Repeat the wash 4 more times for a total of 5 washes. After the final wash, empty or aspirate the wells and firmly tap […]
the plate on a lint free paper towel to remove any remaining wash buffer. Pipet 100 μL of Substrate Solution into each well. Incubate for 30 minutes at room temperature on a plate shaker at ~500 rpm.
Pipet 100 μL Stop Solution to each well. Blank the plate reader against the Blank wells, read the optical density at 450 nm. Calculate the average net Optical Density (OD) bound for each standard and sample by subtracting the average Blank OD from the average OD for each standard and sample.
Using linear graph paper, plot the Average Net OD for each standard versus Bax concentration in each standard. Approximate a straight line through the points. The concentration of Bax in the unknowns can be determined by interpolation. […]
Remove plate cover and empty the wells. […]
Incubate the microwell strips at room temperature (18° to 25°C) for about 15 minutes, if

Caspase-8 = Caspase-8 activation assay in MCF-7 cells; type: cell-based, human

SMILES | IC50 [1] [nM] | melting point [°C] | IC50 [2] [nM] | IC50 [3] [nM] | IC50 [4] [nM] | GI50 ([5]; Homo sapiens) [nM] | GI50 [5] [nM] | viability at 96 h, 50 µM [6] [%] | Bcl-2 Conc. (Bcl-2; treated at IC50 values) [ng/mL] | Bcl-2 Fold reduction (Bcl-2; versus untreated control) | Caspase-3 Conc. (Caspase-3; treated at IC50 concentration) [pg/mL] | Caspase-3 Fold change (Caspase-3; versus untreated control) | Bax Conc. (Bax; treated at IC50 values) [pg/mL] | Bax Fold change (Bax; versus untreated control) | Caspase-8 Conc. (Caspase-8; treated at IC50 concentration) [ng/mL] | Caspase-8 Fold change (Caspase-8; versus untreated control)
O=c1[nH]c2ccccc2c(O)c1/C=N/c1nc(-c2ccccc2)n[nH]1 [Compound 3a, (E) 4-hydroxy-3-(((3-phenyl-1H-1,2,4-triazol-5-yl)imino)methyl)quinolin-2(1H)-one] | 74 ± 7 | 310 to 312 | 72 ± 7 | 69 ± 6 | 74 ± 7 | 72 | – | 89 | – | – | – | – | – | – | – | –
Cn1c(=O)c(/C=N/c2nc(-c3ccccc3)n[nH]2)c(O)c2ccccc21 [Compound 3d, (E)-4-hydroxy-1-methyl-3-(((3-phenyl-1H-1,2,4-triazol-5-yl)imino)methyl)quinolin-2(1H)-one] | 76 ± 7 | 295 to 297 | 76 ± 7 | 74 ± 7 | 77 ± 7 | 76 | – | 89 | – | – | – | – | – | – | – | –
Cn1c(=O)c(/C=N/c2nc(-c3ccncc3)n[nH]2)c(O)c2ccccc21 [Compound 3h, (E)-4-hydroxy-1-methyl-3-(((3-(pyridin-4-yl)-1H-1,2,4-triazol-5-yl)imino)methyl) quinolin-2(1H)-one] | 86 ± 8 | 310 to 312 | 82 ± 8 | 78 ± 7 | 82 ± 8 | 82 | – | 85 | – | – | – | – | – | – | – | –
COc1ccc2[nH]c(=O)c(C=Nc3ccc(NS(=O)(=O)c4ncccn4)cc3)c(O)c2c1 [Compound 5c, N-(4-(((4-hydroxy-6-methoxy-2-oxo-1,2-dihydroquinolin-3-yl)methylene)amino)phenyl)pyrimidine-2-sulfonamide] | 54 ± 5 | – | 53 ± 5 | 49 ± 4 | 55 ± 5 | 53 | – | 86 | – | – | – | – | – | – | – | –
CN[C@@H]1C[C@H]2O[C@@](C)([C@@H]1OC)n1c3ccccc3c3c4c(c5c6ccccc6n2c5c31)C(=O)NC4 [Staurosporine, reference compound] | – | – | – | – | – | – | – | – | 1.00 | 5 | 465 ± 4 | 7 | 288 ± 2 | 32 | 1.60 ± 0.10 | 18

More lines, main results first:

IC50 [1] [nM] | melting point [°C] | IC50 [2] [nM] | IC50 [3] [nM] | IC50 [4] [nM] | GI50 ([5]; Homo sapiens) [nM] | GI50 [5] [nM] | SMILES | viability at 96 h, 50 µM [6] [%] | Bcl-2 Conc. (Bcl-2; treated at IC50 values) [ng/mL] | Bcl-2 Fold reduction (Bcl-2; versus untreated control) | Caspase-3 Conc. (Caspase-3; treated at IC50 concentration) [pg/mL] | Caspase-3 Fold change (Caspase-3; versus untreated control) | Bax Conc. (Bax; treated at IC50 values) [pg/mL] | Bax Fold change (Bax; versus untreated control) | Caspase-8 Conc. (Caspase-8; treated at IC50 concentration) [ng/mL] | Caspase-8 Fold change (Caspase-8; versus untreated control)
70 ± 6 | 325 to 327 | 70 ± 6 | 67 ± 6 | 71 ± 6 | 70 | – | Cc1ccc2[nH]c(=O)c(/C=N/c3nc(-c4ccccc4)n[nH]3)c(O)c2c1 [Compound 3b, (E) 4-hydroxy-6-methyl-3-(((3-phenyl-1H-1,2,4-triazol-5-yl)imino)methyl)quinolin-2(1H)-one] | 90 | – | – | – | – | – | – | – | –
54 ± 5 | 330 to 332 | 50 ± 5 | 46 ± 4 | 52 ± 4 | 51 | – | COc1ccc2[nH]c(=O)c(/C=N/c3nc(-c4ccccc4)n[nH]3)c(O)c2c1 [Compound 3c, (E)-4-hydroxy-6-methoxy-3-(((3-phenyl-1H-1,2,4-triazol-5-yl)imino)methyl) quinolin-2(1H)-one] | 87 | – | – | – | – | – | – | – | –
65 ± 6 | – | 62 ± 6 | 59 ± 5 | 64 ± 6 | 63 | – | Cc1ccc2[nH]c(=O)c(/C=N/c3nc(-c4ccncc4)n[nH]3)c(O)c2c1 [Compound 3f, (E)-4-hydroxy-6-methyl-3-(((3-(pyridin-4-yl)-1H-1,2,4-triazol-5-yl)imino)methyl) quinolin-2(1H)-one] | 90 | – | – | – | – | – | – | – | –
64 ± 6 | – | 64 ± 6 | 60 ± 6 | 66 ± 6 | 82 | 64 | COc1ccc2[nH]c(=O)c(/C=N/c3nc(-c4ccncc4)n[nH]3)c(O)c2c1 [Compound 3g, (E)-4-hydroxy-6-methoxy-3-(((3-(pyridin-4-yl)-1H-1,2,4-triazol-5-yl)imino)methyl) quinol-in-2(1H)-one] | 89 | – | – | – | – | – | – | – | –
